From US5744320A (priority 1995, dated 1998)

Legend:
Firefly Luciferase [1] = target: T1, Firefly Luciferase (Photinus pyralis, UniProt P08659, K549A/L550V/N119G/N50D/S548I); experiment: biochemical; assay type: biochemical
T1 construct: host or cells: Chinese hamster ovary (CHO) cells, transient transfection, cleared lysate

Renilla Luciferase [2] = target: T2, Renilla Luciferase (Renilla reniformis, UniProt P27652); experiment: Quenching of the luminescent reaction of Renilla luciferase by RLQ reagents (Table 3); assay type: biochemical
T2 sequence (P27652 1-311): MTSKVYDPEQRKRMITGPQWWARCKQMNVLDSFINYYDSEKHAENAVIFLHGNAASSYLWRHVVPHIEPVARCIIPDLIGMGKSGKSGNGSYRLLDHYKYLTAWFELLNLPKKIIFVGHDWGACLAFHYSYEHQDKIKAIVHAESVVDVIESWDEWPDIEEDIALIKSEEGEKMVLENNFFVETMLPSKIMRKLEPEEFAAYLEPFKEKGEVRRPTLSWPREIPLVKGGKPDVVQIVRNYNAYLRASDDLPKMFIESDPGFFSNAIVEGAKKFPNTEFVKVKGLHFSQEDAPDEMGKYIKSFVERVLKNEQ
Description: Numerous chemical compounds were tested individually and in combination for their ability to rapidly quench luciferase catalyzed luminescent reactions. Table 1 and Table 3 present the potency of quenching firefly and Renilla luciferases, respectively, for representative concentrations of the compounds tested. The percentage of residual luminescent signal measured after addition of the test compound is indicative of its quenching efficiency. Whether used individually or in combination at varying concentrations, useful quench formulations should be capable of reducing luminescence from the luciferase reactions by 1,000-fold, i.e., to 0.1% of the starting luminescent emission.
Renilla luciferase reactions were performed by adding 100 μl of purified Renilla luciferase (typically diluted to 0.3 μg per ml in 75 mM HEPES, 0.02% BSA; pH 8) to a luminometer tube containing an equal volume of Renilla substrate solution (7.5 mM sodium acetate, 10 mM CDTA, 400 mM sodium sulfate, 25 μM APMBT, 15 mM sodium pyrophosphate, 2 μM coelenterazine; pH 5.5). Photon emission was quantified as previously described. The individual and combined chemical formulations summarized in Table 3 were evaluated for their ability to quench Renilla luciferase luminescence by adding 100 μl of the test solution to the luminescent reaction, then quantifying residual light emission as before.

Renilla Luciferase [3] = target: T2, Renilla Luciferase; experiment: Compatibility of BLA and BLQ reagent chemicals with the luminescent reaction of Renilla luciferase (Table 4); assay type: biochemical
Excerpt: Implicit to the concept of an integrated (i.e., sequential-measurement) dual-enzyme reporter assay is the necessity to efficiently quench luminescence from the first reporter enzyme such that the activity of the second luminescent reporter is not inhibited. Therefore a quench reagent is required that is extremely potent in quenching luminescence from the firefly reaction but can exist as a passive component in the subsequent luminesces reaction catalyzed by Renilla luciferase. Selected chemical components of Beetle Luciferase Activation (BLA) Reagent, and chemicals identified in Table 1 as candidate Beetle Luciferase Quench (BLQ) Reagents, were further evaluated to assess any inhibitory interaction they may have with the luminescent reaction catalyzed by Renilla luciferase. Table 4 summarizes the affect of these selected chemicals on the luminescent activity of Renilla luciferase. Because of its potent inhibitory affect on the firefly reaction, sodium pyrophosphate (Na4 PPi) was tested first. 100 μl Mathews' Buffer supplemented with 2 μM benzyl-coelenterazine and 15 mM Na4 PPi was dispensed into a luminometer tube containing approximately 3 ng of purified Renilla luciferase in 100 μl Mathews' Buffer, and luminescence was quantified. […]

Firefly Luciferase [4] = target: T1, Firefly Luciferase; experiment: biochemical; details: read-out: Percent (%) Residual Firefly Luciferase Activity
Description: Assays were performed using a cell extract prepared from CHO cells expressing firefly luciferase (described in detail below) and further supplemented with purified Renilla luciferase (approximately 0.3 μg/ml). Thus, the prepared extract simulates the experimental condition in which a single cell population is induced to simultaneously express two distinct luciferase reporter enzymes. Reactions to determine Renilla luciferase activity were conducted by first dispensing 10 μl of extract into a luminometer tube containing 100 μl BLA Reagent (75 mM HEPES, 4 mM MgSO4, 20 mM DTT, 100 μM EDTA, 530 μM ATP, 270 μM CoA, 470 μM beetle luciferin: pH 8.0), then adding 100 μl of one of the various BLQRLA test reagents. The 100% control value for Reporter #1, the firefly luciferase-mediated luminescent reaction, was determined by quantifying light emission from said reaction prior to addition of the designated BLQRLA Reagent. The 100% control value for Reporter #2, the Renilla luciferase-mediated luminescent reaction, was determined using the dual-reporter assay format in which
control BLQRLA Reagent (7.5 mM acetic acid, 15 mM Na4 PPi, 400 mM Na2 SO4, 2 μM coelenterazine; pH 5.0) was added to the firefly luciferase reaction in a 1:1 volume ratio.

[5] = read-out: Percent (%) Residual Firefly Luciferase Activity
[6] = assay concentration 0.33% (v/v)

T1 sequence (P08659 whole entry N50D/N119G/S548I/K549A/L550V): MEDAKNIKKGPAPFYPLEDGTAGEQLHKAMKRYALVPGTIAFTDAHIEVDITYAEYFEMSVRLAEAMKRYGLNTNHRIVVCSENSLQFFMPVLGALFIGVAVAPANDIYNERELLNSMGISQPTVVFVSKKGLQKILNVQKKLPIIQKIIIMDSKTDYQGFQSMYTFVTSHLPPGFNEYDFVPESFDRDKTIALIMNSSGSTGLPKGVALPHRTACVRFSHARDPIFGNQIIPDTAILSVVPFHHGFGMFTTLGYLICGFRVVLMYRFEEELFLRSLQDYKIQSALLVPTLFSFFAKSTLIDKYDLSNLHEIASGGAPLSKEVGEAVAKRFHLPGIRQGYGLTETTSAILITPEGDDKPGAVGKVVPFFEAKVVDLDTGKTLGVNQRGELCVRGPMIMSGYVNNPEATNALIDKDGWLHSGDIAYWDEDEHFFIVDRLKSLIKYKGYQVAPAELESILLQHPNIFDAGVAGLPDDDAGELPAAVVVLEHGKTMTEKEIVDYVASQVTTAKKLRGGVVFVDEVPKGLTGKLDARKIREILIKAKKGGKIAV

## O=C(O)CN(CC(=O)O)[C@@H]1CCCC[C@H]1N(CC(=O)O)CC(=O)O (relative stereo) [CDTA, trans-1,2,-Diaminocyclohexane-N,N,N',N'-tetraacetic acid]
Firefly Luciferase [1]; [5]
  remaining activity at 15400 µM: 0.1%

## Cc1ccc2nc(-c3ccc(N)cc3)sc2c1 [APMBT, 2-(4-aminophenyl)-6-methylbenzothiazole]
Firefly Luciferase [1]; [5]
  remaining activity at 7.6 µM: 0.33%

## CCCCCCCCCCP(C)(C)=O [APO-10, Dimethyldecylphosphine Oxide]
Firefly Luciferase [1]; [5]
  remaining activity at 1 %: 1.9%

## c1ccc2scnc2c1 [BT, Benzothiazole]
Firefly Luciferase [1]; [5]
  remaining activity at 3000 µM: 2.3%

## O=C(O)CC(O)(CC(=O)O)C(=O)O [Citric Acid, pH 3, citric acid]
Renilla Luciferase [2]; assay concentration 6.67 mM, read-out: Percent (%) Residual Renilla Luciferase Activity
  remaining activity at 6670 µM: 5.3%

## O=C(O)c1csc(-c2nc3ccc(O)cc3s2)n1 [Dehydroluciferin, 2-(6'-Hydroxy-2'-benzothiazolyl)-thiazole-4-carboxylic acid]
Firefly Luciferase [1]; assay concentration: Saturating
  Percent (%) Residual Firefly Luciferase Activity: 0.064%

## O=C(O)CN(CCN(CC(=O)O)CC(=O)O)CC(=O)O [EDTA, Ethylenediaminetetraacetic acid]
Firefly Luciferase [1]; [5]
  remaining activity at 22700 µM: 0.13%

## Oc1ccccc1-c1nc2ccccc2s1 [HPBT, 2(O-Hydroxyphenyl)benzothiazole]
Firefly Luciferase [1]; [5]
  remaining activity at 30 µM: 44%

## O=P([O-])([O-])O.[K+].[K+] [K2 HPO4]
Firefly Luciferase [1]; assay concentration 190 mM
  Percent (%) Residual Firefly Luciferase Activity: 8.3%

## O=S(=O)([O-])[O-].[Na+].[Na+] [Na2 SO4, sodium sulfate]
Firefly Luciferase [1]; assay concentration 400 mM
  Percent (%) Residual Firefly Luciferase Activity: 10%

## O=P([O-])([O-])OP(=O)([O-])[O-].[Na+].[Na+].[Na+].[Na+] [Na4 PPi, Tetrasodium Pyrophosphate]
Firefly Luciferase [1]; [5]
  remaining activity at 31000 µM: 0.12%
Renilla Luciferase [3]; Mathews' Buffer with 15 mM Na4 PPi added 1:1, compared to control lacking sodium pyrophosphate
  inhibitory effect on the luminescent reaction catalyzed by Renilla luciferase: no inhibitory affect
Renilla Luciferase [3]; assay concentration 7.5 mM, control = 100%, read-out: Percent (%) Renilla Luciferase Activity
  activity at 7500 µM: 102%
Firefly Luciferase [4]
  remaining activity at 7500 µM: 1%

## [Cl-].[Na+] [NaCl]
Firefly Luciferase [1]; assay concentration 400 mM
  Percent (%) Residual Firefly Luciferase Activity: 8.3%

## [I-].[Na+] [NaI, sodium iodide]
Firefly Luciferase [1]; assay concentration 400 mM
  Percent (%) Residual Firefly Luciferase Activity: 0.078%
Renilla Luciferase [2]; assay concentration 330 mM
  Percent (%) Residual Renilla Luciferase Activity: 5.9%

## O=[N+]([O-])[O-].[Na+] [NaNO3]
Firefly Luciferase [1]; assay concentration 400 mM
  Percent (%) Residual Firefly Luciferase Activity: 2.1%

## c1ccc(-c2nc3ccccc3s2)cc1 [PBT, 2-Phenylbenzothiazole]
Firefly Luciferase [1]; assay concentration 0.15 mM, read-out: Percent (%) Residual Firefly Luciferase Activity
  remaining activity at 150 µM: 7.5%

## CCCCCCCCCCCCOS(=O)(=O)[O-].[Na+] [SDS, Sodium Dodecyl Sulfate]
Firefly Luciferase [1]; [5]
  remaining activity at 0.3 %: 0.079%
Renilla Luciferase [2]; assay concentration 0.33% (w/v), read-out: Percent (%) Residual Renilla Luciferase Activity
  remaining activity at 0.33 %: 0.00029%

## CC(C)O [iso-Propanol, iso-propanol]
Firefly Luciferase [1]; [5]
  remaining activity at 14.4 %: 2.3%

## CCCCO [n-Butanol, n-butanol]
Renilla Luciferase [2]; assay concentration 1.67% (v/v), read-out: Percent (%) Residual Renilla Luciferase Activity
  remaining activity at 1.67 %: 4.5%

## Nc1ncnc2c1ncn2[C@@H](CO)O[C@@H](CO)COP(=O)(O)OP(=O)(O)OP(=O)(O)O [or-ATP, Adenosine 5'-Triphosphate 2',3'-acyclic dialcohol, Periodate Oxidized, Borohydride Reduced]
Firefly Luciferase [1]; [5]
  remaining activity at 7600 µM: 0.78%

## Triton ® X-100
Renilla Luciferase [2]; [6]
  Percent (%) Residual Renilla Luciferase Activity: 3.1%

## Tween ®20
Renilla Luciferase [2]; [6]
  Percent (%) Residual Renilla Luciferase Activity: 3.4%
